Reference: patent publication US9708336B2, “Metallo-beta-lactamase inhibitors” (priority 2014, dated 2017)
Where two headings read alike, the source gives them in different places.

Key:
NDM-1 = NDM-1 (Klebsiella pneumoniae, UniProt C7C422); experiment: biochemical; format: biochemical; settings: read-out: NDM-1 IC50
VIM-1 = VIM-1 (Pseudomonas aeruginosa (strain ATCC 15692 / DSM 22644 / CIP 104116 / JCM 14847 / LMG 12228 / 1C / PRS 101 / PAO1), UniProt A0A0F7KYQ8); experiment: Enzyme activity: determination of IC50, fluorescence assay with CCF2-FA substrate (VIM-1); format: biochemical
IMP-1 = IMP-1 (Serratia marcescens, UniProt P52699); experiment: biochemical; format: biochemical; settings: read-out: IMP-1 IC50
[1] = system: Escherichia coli expressing NDM-1 (CLB30005); experiment: Antibiotic potentiation activity: synergistic concentration (MITC95) with imipenem, OD600 growth; format: cell-based; settings: for Escherichia coli MITC95: Escherichia coli expressing NDM-1 (CLB30005), 95% growth inhibition; for Escherichia coli expressing NDM-1 (CLB 30005) MITC95: concentration giving 95% inhibition of bacterial growth
Outline: (§1)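 Imipenem (4 μg/ml final; 1 μg/ml as an option) was combined with compound against isolates diluted 1:100 from saline suspensions into 1.1× CAMHB. Growth was assessed by absorbance at 22–24 h, 35 °C.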

[2] = system: Serratia marcescens expressing IMP-1 (CL5741); experiment: as above; format: cell-based; settings: for Serratia marcescens MITC95: Serratia marcescens expressing IMP-1 (CL5741), 95% growth inhibition; for Serratia marcescens expressing IMP-1 (CL5741) MITC95: concentration giving 95% inhibition of bacterial growth
Outline: as §1

[3] = system: Klebsiella pneumoniae expressing VIM-1 (IHMA599644); experiment: as above; format: cell-based; settings: for Klebsiella pneumoniae MITC95: Klebsiella pneumoniae expressing VIM-1 (IHMA599644), 95% growth inhibition; for Klebsiella pneumoniae expressing VIM-1 (IHMA 599644) MITC95: concentration giving 95% inhibition of bacterial growth
Outline: as §1

[4] = NDM-1 enzyme, CCF2-FA fluorescence assay
[5] = VIM-1 enzyme, CCF2-FA fluorescence assay, read-out: VIM-1 IC50
[6] = IMP-1 enzyme, CCF2-FA fluorescence assay
[7] = fluorescence assay with CCF2-FA substrate
[8] = fluorescence assay with CCF2-FA substrate, read-out: VIM-1 IC50
[9] = VIM-1 IC50, fluorescence assay with CCF2-FA substrate
[10] = VIM-1 IC50, VIM-1 enzyme, CCF2-FA fluorescence assay

Sequence of NDM-1 (C7C422 whole entry, looked up, species assumed): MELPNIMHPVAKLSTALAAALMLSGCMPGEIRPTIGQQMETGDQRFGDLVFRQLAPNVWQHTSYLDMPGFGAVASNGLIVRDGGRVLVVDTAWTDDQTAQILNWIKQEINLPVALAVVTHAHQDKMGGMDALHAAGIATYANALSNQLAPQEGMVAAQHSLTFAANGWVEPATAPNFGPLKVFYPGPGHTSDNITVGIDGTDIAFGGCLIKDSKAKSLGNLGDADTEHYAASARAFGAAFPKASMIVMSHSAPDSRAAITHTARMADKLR
Sequence of IMP-1 (P52699 whole entry, looked up): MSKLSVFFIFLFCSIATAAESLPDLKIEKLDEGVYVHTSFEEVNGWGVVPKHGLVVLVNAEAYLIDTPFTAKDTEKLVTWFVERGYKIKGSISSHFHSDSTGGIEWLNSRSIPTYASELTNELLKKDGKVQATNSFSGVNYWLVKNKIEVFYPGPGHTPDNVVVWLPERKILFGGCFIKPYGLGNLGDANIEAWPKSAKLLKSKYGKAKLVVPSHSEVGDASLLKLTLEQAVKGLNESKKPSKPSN

Row | Structure (SMILES) | IC50 (NDM-1; [4]) [µM] | IC50 (VIM-1; [5]) [µM] | IC50 (IMP-1; [6]) [µM] | Escherichia coli MITC95 [1] [µM] | Serratia marcescens MITC95 [2] [µM] | Klebsiella pneumoniae MITC95 [3] [µM] | IC50 (NDM-1; [7]) [µM] | IC50 (VIM-1; [8]) [µM] | IC50 (IMP-1; [7]) [µM] | Escherichia coli expressing NDM-1 (CLB 30005) MITC95 [1] [µM] | Serratia marcescens expressing IMP-1 (CL5741) MITC95 [2] [µM] | Klebsiella pneumoniae expressing VIM-1 (IHMA 599644) MITC95 [3] [µM] | IC50 (VIM-1; [9]) [µM] | IC50 (VIM-1; [10]) [µM]
1 | NCc1ccc(-c2cccc(S(N)(=O)=O)c2-c2nnn[nH]2)cn1 [Example 306, 3-(6-(aminomethyl)pyridin-3-yl)-2-(1H-tetrazol-5-yl)benzenesulfonamide] | 0.104 | 0.3 | 3.74 | 1.172 | 50 | 25 | – | – | – | – | – | – | – | –
2 | Cc1ccccc1-c1cccc(S(N)(=O)=O)c1-c1nn[nH]n1 [Example 325, 2′-methyl-2-(2H-tetrazol-5-yl)-[1,1′-biphenyl]-3-sulfonamide] | 0.0013 | 0.0131 | 0.228 | 3.125 | 25 | 37.5 | – | – | – | – | – | – | – | –
3 | CS(=O)(=O)CCn1cc(-c2cccc(S(N)(=O)=O)c2-c2nn[nH]n2)cn1 [Example 54, 3-{1-[2-(methylsulfonyl)ethyl]-1H-pyrazol-4-yl}-2-(2H-tetrazol-5-yl)benzenesulfonamide] | – | – | – | – | – | – | 0.0423 | 0.937 | 0.205 | 2.344 | 18.75 | >200 | – | –
4 | NS(=O)(=O)c1nccc(-c2ccc3[nH]nc(C(F)(F)F)c3c2)c1-c1nn[nH]n1 [Example 209, 3-(2H-tetrazol-5-yl)-4-(3-(trifluoromethyl)-1H-indazol-5-yl)pyridine-2-sulfonamide] | – | – | – | – | – | – | 0.0263 | 0.00545 | 0.516 | 2.604 | 75 | 37.5 | – | –
5 | NS(=O)(=O)c1cccc(-c2cccc(F)n2)c1-c1nn[nH]n1 [Example 36, 3-(6-fluoropyridin-2-yl)-2-(2H-tetrazol-5-yl)benzenesulfonamide] | – | – | – | – | – | – | 0.0387 | 0.219 | 0.79 | 1.953 | 50 | 75 | – | –
6 | NS(=O)(=O)c1cccc(-c2ccc(N3CCCCC3)cc2)c1-c1nn[nH]n1 [Example 18, 4′-piperidin-1-yl-2-(2H-tetrazol-5-yl)biphenyl-3-sulfonamide] | – | – | – | – | – | – | 0.00204 | – | 0.0234 | 3.906 | 103.1 | >200 | 0.326 | –
7 | NS(=O)(=O)c1cccc(-c2ccc3[nH]c(=O)[nH]c3c2)c1-c1nn[nH]n1 [Example 84, 3-(2-oxo-2,3-dihydro-1H-benzimidazol-5-yl)-2-(2H-tetrazol-5-yl)benzenesulfonamide] | – | – | – | – | – | – | 0.00308 | 0.0232 | 0.708 | 0.7813 | 50 | 6.25 | – | –
8 | COc1cccc(S(N)(=O)=O)c1-c1nnn[nH]1 [Example 257, 3-Methoxy-2-(1H-tetrazol-5-yl)benzenesulfonamide] | 0.547 | 9.23 | 8.28 | 1.563 | 150 | >200 | – | – | – | – | – | – | – | –
9 | Cc1ccc(-c2ccnc(S(N)(=O)=O)c2-c2nnn[nH]2)cc1 [Example 190, 3-(1H-Tetrazol-5-yl)-4-(p-tolyl)pyridine-2-sulfonamide] | – | – | – | – | – | – | 0.232 | 1.3 | 3.15 | 10.42 | 100 | >200 | – | –
10 | COc1ccc(S(N)(=O)=O)c(-c2nn[nH]n2)c1 [Example 253, 4-Methoxy-2-(2H-tetrazol-5-yl)benzenesulfonamide] | 0.44 | 170 | 46.3 | 3.125 | >200 | >200 | – | – | – | – | – | – | – | –
11 | CNS(=O)(=O)c1ccc(-c2cccc(S(N)(=O)=O)c2-c2nn[nH]n2)cc1 [Example 57, N~4~-′-methyl-2-(2H-tetrazol-5-yl)biphenyl-3,4′-disulfonamide] | – | – | – | – | – | – | 0.00419 | 0.0297 | 0.0289 | 1.563 | 4.688 | 25 | – | –
12 | CS(=O)(=O)Nc1cccc(-c2ccnc(S(N)(=O)=O)c2-c2nn[nH]n2)c1 [Example 202, 4-(3-(methylsulfonamido)phenyl)-3-(2H-tetrazol-5-yl)pyridine-2-sulfonamide] | – | – | – | – | – | – | 0.0115 | 0.118 | 0.0238 | 0.3906 | 2.344 | 25 | – | –
13 | NS(=O)(=O)c1cccc(C(F)(F)F)c1-c1nnn[nH]1 [Example 256, 2-(1H-Tetrazol-5-yl)-3-(trifluoromethyl)benzenesulfonamide] | 0.23 | 8.44 | 6.26 | 0.7813 | 100 | >200 | – | – | – | – | – | – | – | –
14 | Cc1ccc(-c2cc(-c3ccc4c(c3)CNC4)cc(S(N)(=O)=O)c2-c2nn[nH]n2)cc1 [Example 294, 5-(isoindolin-5-yl)-4′-methyl-2-(2H-tetrazol-5-yl)-[1,1′-biphenyl]-3-sulfonamide] | 0.000637 | – | 0.0294 | 0.3802 | 0.6406 | 37.5 | – | – | – | – | – | – | – | 0.193
15 | NS(=O)(=O)c1cccc(-c2c[nH]c3nccnc23)c1-c1nn[nH]n1 [Example 104, 3-(5H-pyrrolo[2,3-b]pyrazin-7-yl)-2-(2H-tetrazol-5-yl)benzenesulfonamide] | – | – | – | – | – | – | 0.0168 | 0.107 | 0.287 | 0.9766 | 15.63 | 25 | – | –
16 | Cc1nc(F)ccc1-c1cccc(S(N)(=O)=O)c1-c1nn[nH]n1 [Example 79, 3-(6-fluoro-2-methylpyridin-3-yl)-2-(2H-tetrazol-5-yl)benzenesulfonamide] | – | – | – | – | – | – | 0.0486 | – | 3.97 | 1.563 | 150 | 25 | 0.0602 | –
17 | NS(=O)(=O)c1cccc(-c2ccnnc2)c1-c1nn[nH]n1 [Example 47, 3-pyridazin-4-yl-2-(2H-tetrazol-5-yl)benzenesulfonamide] | – | – | – | – | – | – | 0.345 | 5.36 | 4.16 | 0.7813 | 50 | >200 | – | –
18 | Cc1ccc(-c2cccc(S(N)(=O)=O)c2-c2nnn[nH]2)cn1 [Example 299, 3-(6-methylpyridin-3-yl)-2-(1H-tetrazol-5-yl)benzenesulfonamide] | 0.0118 | – | 0.444 | 0.1953 | 18.75 | 37.5 | – | – | – | – | – | – | – | 0.11
19 | NS(=O)(=O)c1cccc(-c2ccc3[nH]nnc3c2)c1-c1nn[nH]n1 [Example 74, 3-(1H-benzotriazol-5-yl)-2-(2H-tetrazol-5-yl)benzenesulfonamide] | – | – | – | – | – | – | 0.0264 | – | 1.61 | 0.9766 | 18.75 | 50 | 0.475 | –
20 | NS(=O)(=O)c1cccc(-c2ccc3c(c2)C(=O)NC3)c1-c1nn[nH]n1 [Example 53, 3-(3-oxo-2,3-dihydro-1H-isoindol-5-yl)-2-(2H-tetrazol-5-yl)benzenesulfonamide] | – | – | – | – | – | – | 0.00441 | 0.037 | 0.0733 | 0.5859 | 6.25 | 37.5 | – | –
21 | Cc1ccc(-c2cccc(S(N)(=O)=O)c2-c2nnn[nH]2)nc1 [Example 398, 3-(5-Methylpyridin-2-yl)-2-(1H-tetrazol-5-yl)benzenesulfonamide] | 0.043 | 0.312 | 1.21 | 1.563 | 50 | 100 | – | – | – | – | – | – | – | –
